Values quoted from earlier work in article PMC11859340, “The Therapeutic Potential of Spirooxindoles in Cancer: A Focus on p53–MDM2 Modulation” (Pharmaceuticals, 2025).
Read-outs that look alike come from different tables or passages of the source.

Tests used:
[1] = system: p53-wild-type MCF7 (breast cancer) cell line; design: method as in PMID 33725632
MCF7 (breast) [2] = system: MCF7 (breast); design: method as in doi:10.31788/RJC.2023.1638506; conditions: MTT; read-out: IC50 against MCF7
HeLa (cervical) = system: HeLa (cervical); design: method as in doi:10.31788/RJC.2023.1638506; conditions: MTT; read-out: IC50 against HeLa
MCF7 (breast) [3] = system: MCF7 (breast); design: method as in PMID 26256638; conditions: MTT; read-out: IC50 against MCF7
MDA-MB-231 = system: MDA-MB-231; design: method as in doi:10.3390/separations10040225; conditions: MTT; read-out: IC50 against MDA-MB-231
PC3 = system: PC3; design: method as in doi:10.3390/separations10040225; conditions: MTT; read-out: IC50 against PC3
PC-3 (prostate) = system: PC-3 (prostate); design: method as in PMID 30802707; conditions: MTT; read-out: IC50 against PC-3
HepG2 (liver) [4] = system: HepG2 (liver); design: method as in PMID 30802707; conditions: MTT; read-out: IC50 against HepG2
HCT116 (colon) [5] = system: HCT116 (colon); design: method as in PMID 30802707; conditions: MTT; read-out: IC50 against HCT116
HCT116 (colon) [6] = system: HCT116 (colon); design: method as in PMID 30508794; conditions: MTT; read-out: IC50 against HCT116
[7] = design: method as in PMID 30508794; conditions: MTT; read-out: IC50 against PC3
HepG2 (liver) [8] = system: HepG2 (liver); design: method as in PMID 30508794; conditions: MTT; read-out: IC50 against HepG2
PC3 (prostate) = system: PC3 (prostate); design: method as in PMID 34684885; conditions: MTT; read-out: IC50 against PC3
[9] = system: HEK293T (embryonic kidney); design: method as in doi:10.1080/10426507.2020.1723590; conditions: MTT; read-out: IC50 against HEK293T
A549 (lung) [10] = system: A549 (lung); design: method as in doi:10.1080/10426507.2020.1723590; conditions: MTT; read-out: IC50 against A549
p53 = system: p53; design: method as in doi:10.1080/10426507.2020.1723590
MCF7 (breast) [11] = system: MCF7 (breast); design: method as in PMID 29302672; conditions: at 10 μM, CCK-8
HCT116 (colon) [12] = system: HCT116 (colon); design: method as in PMID 29302672; conditions: at 10 μM, CCK-8
A549 (lung) [13] = system: A549 (lung); design: method as in PMID 29302672; conditions: at 10 μM, CCK-8
p53–MDM2 = system: p53–MDM2; design: method as in PMID 30458062
[14] = system: SJSA-1 (osteosarcoma cancer cell line with wild p53); design: method as in PMID 30458062; conditions: read-out: IC50 against SJSA-1
[15] = system: SK-OV-3 (ovarian cancer cell line with mutant p53); design: method as in PMID 30458062; conditions: read-out: IC50 against SK-OV-3

## Cc1noc([C@@H]2[C@@H](c3ccccc3)[C@H](C(F)(F)F)N[C@@]23C(=O)Nc2cc(Br)ccc23)c1[N+](=O)[O-]
[1]; absence of Fer-1
  IC50: 0.17 µM
[1]; presence of Fer-1
  IC50: 13.7 µM

## Cc1noc([C@@H]2[C@@H](c3ccccc3)[C@H](C(F)(F)F)N[C@@]23C(=O)Nc2cc(Cl)ccc23)c1[N+](=O)[O-]
[1]; absence of Fer-1
  IC50: 0.12 µM
[1]; presence of Fer-1
  IC50: 13.5 µM

## CC(C)(C)OC(=O)N1CCC(c2nc(/C=C3\CCC4(C3=O)C3CCCCN3C3(C(=O)Nc5ccccc53)C4c3csc(C4CCN(C(=O)OC(C)(C)C)CC4)n3)cs2)CC1 (centres unmarked)
MCF7 (breast) [2]
  IC50: 63.4 µM
HeLa (cervical)
  IC50: 76.3 µM

## CN1C[C@H](c2cccc(F)c2)[C@@H](C(=O)C2CC[C@H]3[C@@H]4CC=C5C[C@@H](O)CC[C@]5(C)[C@H]4CC[C@]23C)[C@]12C(=O)Nc1ccccc12 (some centres unmarked) [23 (R = 3-FC6H4)]
MCF7 (breast) [3]
  IC50: 4.6 ± 0.7 µM

## O=C(c1nc2ccccc2[nH]1)[C@H]1[C@H](c2cccs2)C2CC3CCCCC3N2[C@]12C(=O)Nc1ccc(Cl)cc12 (some centres unmarked) [39 (R = 2-thienyl)]
MDA-MB-231
  IC50: 3.8 ± 0.205 µM
PC3
  IC50: 4.314 ± 0.036 µM

## O=C(/C=C/c1ccc(Cl)cc1Cl)[C@H]1[C@H](c2ccc(Cl)cc2Cl)C2CSCN2[C@]12C(=O)Nc1ccccc12 (some centres unmarked) [49 (R = R^1 = 2,4-Cl2C6H3, R^2 = H)]
PC-3 (prostate)
  IC50: 1.8 ± 0.3 µM
HepG2 (liver) [4]
  IC50: 0.85 ± 0.2 µM
HCT116 (colon) [5]
  IC50: 2 ± 0.6 µM
VERO-B (normal) cells
  IC50: 5 ± 0.245 µM

## O=C(c1c[nH]c2ccccc12)C1C(c2ccc(C(F)(F)F)cc2)C2CSCN2C12C(=O)Nc1ccccc12 (centres unmarked) [51 (R = 4-F3CC6H4)]
HCT116 (colon) [6]
  IC50: 7 ± 0.27 µM
[7]
  IC50: 6 ± 0.23 µM
HepG2 (liver) [8]
  IC50: 5.5 ± 0.2 µM

## O=C1/C(=C/c2ccccc2)CCC[C@@]12[C@H](c1ccccc1)[C@H]1C[C@@H]3CCCC[C@@H]3N1[C@]21C(=O)Nc2cc(Cl)ccc21 [70 (R = Ph, R’ = 6-Cl)]
PC3 (prostate)
  IC50: 3.7 ± 1 µM

## CN1C[C@H](c2ccccc2Cl)[C@]2(NC(=S)N(CC34CC5CC(CC(C5)C3)C4)C2=O)[C@]12C(=O)Nc1ccc(Br)cc12 [89 (R = Br, R’ = 2-ClC6H4)]
[9]
  IC50: 7.63 ± 0.75 µM
A549 (lung) [10]
  IC50: 7.2 ± 1.85 µM

## CN1C[C@H](c2ccc(Cl)cc2)[C@]2(NC(=S)N(CC34CC5CC(CC(C5)C3)C4)C2=O)[C@]12C(=O)Nc1ccc(Br)cc12 [89 (R = Br, R’ = 4-ClC6H4)]
p53; A549, at 100 μM
  p53 receptor activation: 2.03 fold

## CN1CC2(NC(=S)N(CC34CC5CC(CC(C5)C3)C4)C2=O)C2(C1)C(=O)Nc1ccc(Cl)cc12 (centres unmarked) [92 (R = Cl, R’ = Me)]
[9]
  IC50: 2.8 ± 0.3 µM
A549 (lung) [10]
  IC50: 5 ± 0.6 µM

## CN1CC2(NC(=S)N(CC34CC5CC(CC(C5)C3)C4)C2=O)C2(C1)C(=O)Nc1ccccc12 (centres unmarked) [92 (R = H, R’ = Me)]
p53; A549, 1.56 to 100 μM compound concentrations
  p53 reporter activation: 1.06 to 4.39 folds

## O=C(c1ccc(Br)cc1)[C@@H]1S[C@@]2(C(=O)Nc3cccc(Br)c32)[C@@H](c2ccccc2)C[C@@H]1O [146 (R^1/R^2/R^3 = 4-Br, 4-BrC6H4, Ph)]
MCF7 (breast) [11]
  % inhibition, MCF7: 50.9%
HCT116 (colon) [12]
  % inhibition, HCT116: 81.7%
A549 (lung) [13]
  % inhibition, A549: 86.9%

## O=C(O)c1ccc([C@H]2C[C@H]3[C@@H](N2)[C@H](c2cccc(Cl)c2F)C2(C(=O)Nc4cc(Cl)ccc42)N3CC2CC2)cc1 (some centres unmarked) [compound 52, reference compound]
p53–MDM2
  IC50: 0.004 µM
[14]
  IC50: 0.471 µM
[15]
  IC50: > 25 µM

## O=C(O)c1ccc(N2CC3C(C2=O)C(c2cccc(Cl)c2F)C2(C(=O)Nc4cc(Cl)ccc42)N3CC2CC2)cc1 (centres unmarked) [compound 62]
p53–MDM2
  IC50: 0.004 µM
[14]
  IC50: 0.161 µM
[15]
  IC50: > 25 µM

## O=C(O)c1ccc(N2CCC3C(C2=O)C(c2cccc(Cl)c2F)C2(C(=O)Nc4cc(Cl)ccc42)N3CC2CC2)cc1 (centres unmarked) [compound 63]
p53–MDM2
  IC50: 0.004 µM
[14]
  IC50: 0.547 µM
[15]
  IC50: > 25 µM

## CC(=O)N1C(=O)[C@@]2(S[C@@H](C(=O)c3ccccc3)[C@@H](O)C[C@@H]2c2ccccc2)c2c(Br)cccc21 [compound 147]
MCF7 (breast) [11]
  % inhibition, MCF7: 77.6%
HCT116 (colon) [12]
  % inhibition, HCT116: 56.4%
A549 (lung) [13]
  % inhibition, A549: 70.3%
